# Where no end group is shown, it is not given here.
# Legend:
# EAE in B10PL mice = assay: Peptide vaccination in EAE model; assay type: in vivo; conditions: B10PL mice immunized subcutaneously with antigen emulsified with IFA; compared with IFA alone
# Excerpt: B10PL mice were vaccinated with either 1-9NacMBP, a MHC Class II biding peptide derived from MBP or p277, a MHC Class II biding peptide derived from Hsp60. In this regard, it is well known that 1-9NacMBP is a pathogenic peptide in B10PL mice and p277 may be involved in the pathogenesis of T1D in certain mouse strains (174) but irrelevant to EAE.
# T1D in NOD mice = assay: Peptide vaccination in spontaneous T1D model; conditions: NOD mice immunized subcutaneously with antigen emulsified with IFA; compared with IFA alone
# Protocol: In the standard protocol used throughout this study female 8-10 weeks old B10PL or 3-4 weeks old NOD mice were immunized subcutaneously with 1-9Nac MBP or p277 emulsified with IFA at 100 uM/mouse as described. EAE was induced at least one week after peptide vaccination. CD8+ T cells were purified from spleens and draining lymph nodes of peptide vaccination protected EAE/B10PL mice or T1D/NOD mice by positive selection with CD8 MACS magnetic beads (Miltenyibiotec, Inc. Auburn Calif.). The purity of CD8+ T cells is routinely >95%.
# The effect of peptide vaccination or adoptive transfer of CD8+ T cells was evaluated by assessing the clinical EAE (181) or T1D in the recipient mice.
# Qa-1 [1] = assay: Qa-1 binding assay (stabilization of Qa-1a surface expression on 3F4 transfectants, FACS); design: species or system murine; conditions: 3F4 cells, peptide 50 μM, 26° C., approximately 18 hours
# Protocol: The capacity of the peptides to bind to Qa-1 was first assessed by their ability to stabilize Qa-1 surface expression on 3F4 cells. The 3F4 cells were incubated at 26° C. for approximately 18 hours with Hsp60sp or Qdm peptides and a Qa-1 non-binding peptide HEL 74-96 served as control peptide (12, 14 and 17). As shown by FIG. 6, the binding of exogenous peptide at 26° C. causes a shift in the intensity of Qa-1a surface staining analyzed by FACS.
# Selected Qa-1a-PcDNA3.1 positive transfectants detected by RT-PCR were assayed for their Qa-1 surface expression after loading with known Qa-1 binding peptides. In brief, Qa-1a transfectants were incubated at 26° C. for approximately 18 hours with Hsp60sp or Qdm peptides (10, 12 and 17). The surface expression of Qa-1a was assessed by staining with anti-Qa-1a sera followed by Phycoerythorine (PE)-goat anti-mouse Ig, analyzed on a FACScan flow cytometer and CellQuest™ software (Becton Dickinson, Mountain View, Calif.)(1). All peptides were used at 50 μM unless specifically indicated.
# CD94/NKG2A [2] = assay: NK assay with peptide-loaded 3F4 cells; assay type: cell-based; conditions: 3F4 cells loaded with peptide at 26° C. overnight; mouse NK cells 2 hrs
# Excerpt: Since a significant number of murine CD8+ T cells express CD94/NKG2A, it was investigated whether Qa-1/Hsp60sp generated in activated murine T cells is capable of interacting with CD94/NKG2A in a functional NK assay. […] This is also compatible with the notion that two types of Qa-1/HLA-E binding peptides could be distinguished by their ability of interact with CD94/NKG2A in both humans (14) and mice.
# NK cell lines are routinely established from B10PL mice (24). Unlabeled 3F4 cells were loaded with test peptides at 26° C. overnight and mixed with an equal number of CFSE labeled human EBV transformed LCL cells which are not susceptible to the killing by mouse NK cells. Graded numbers of mouse NK cells were added to the mixture of 3F4 and LCL cells and further incubated at 37° C. for 2 hrs. 3F4 cells, which were not loaded with peptides or loaded with non-Qa-1 binding peptides served as controls. The cell mixtures were then stained with anti mouse H-2^U mAb 3-8-3P-PE to distinguish NK cells from target cells. The change in the ratio of 3F4 to LCL cells in the presence or absence of NK cells in each group detected by FACS (1) reflects the specific NK killing: % specific killing={[the killing ratio in control wells (without NK)−the killing ratio in experimental wells (with NK)]/the killing ratio of control wells}×100%.
# Qa-1/HLA-E = conditions: cited from earlier work
# Qa-1 [3] = assay: Peptide competition assay (functional NK assay); assay type: cell-based, murine; conditions: Qdm 20 μM; competing peptide 50, 100, 200 μM; 18 hrs at 26° C.; E/T ratio 2:1
# Protocol: The ability of the Hsp60sp to compete with Qdm for binding to Qa-1 was further tested in a functional NK assay.
# Competing peptides (Hsp60sp or control non-Qa-1 binding peptide) at 50, 100, 200 μM were added to the 3F4 cells, together with 20 μM Qdm for 18 hrs at 26° C. (14). Equal numbers of CFSE labeled LCL cells were mixed with 3F4 cells and NK cells were then added into the mixture of peptide loaded 3F4 cells and LCL cells. The percent NK killing of 3F4 cells was evaluated.
# [4] = tested on: Qa-1 dependent CD8+ T cells; assay: CD8+ T cell inhibition assay, CD8+ T cells from EAE recovered mice; assay type: cell-based; conditions: CD8+ T cells isolated from EAE recovered B10PL mice
# Excerpt: It was next tested if Qa-1/Hsp60sp is the target for the regulatory CD8+ T cells. […] The Qa-1 expressing 3F4 cell was used as the Qa-1 peptide presenting cell to test if Hsp60sp is preferentially recognized by the regulatory CD8+ T cells in a CD8+ T cell inhibition assay. The 1-9NacMBP (myelin basic protein) specific, intermediate avidity clone 1AE10, capable of inducing EAE in vivo (8, 19) served as a positive control, and a non-encephalitogenic, low avidity clone 4D10 as well as 3F4 loaded with control non-Qa-1 binding peptide or Qdm served as negative controls. […] Thus, Hsp60sp is, indeed, a specific target recognized by the CD8+ T cells, when presented by Qa-1.
# 3F4 cells were passively loaded with peptides overnight at 26° C. Equal number of unlabeled 3F4 cells loaded with peptides and CFSE labeled 3F4 cells that are not loaded with peptide were mixed and a graded number of CD8+ T cells were added to the targets. […] The ratio between peptide-loaded (non-CFSE-labeled) 3F4 cells and non-loaded (CFSE labeled) 3F4 cells in the presence of CD8+ T cells was determined as % of specific inhibition: {[the ratio of loaded to unloaded 3F4 cells in control cultures (without CD8+ T cells)−the ratio in experimental cultures (with CD8+ T cells)]/the ratio in control cultures}×100% (1).
# [5] = tested on: Qa-1 restricted CD8+ T cells; assay: CD8+ T cell inhibition assay, CD8+ T cells from peptide vaccination protected mice; assay type: cell-based
# Excerpt: To test this hypothesis, a Qa-1a expressing cell 3F4 was used as peptide-presenting cell to determine the specificity of the CD8+ T cells isolated from either 1-9Nac MBP or p277 vaccination protected B10PL and NOD mice.
# Physiological target T cells, the intermediate avidity 1-9Nac MBP specific clone 1AE10 from B10PL mice and p277 specific clone 15A6 from NOD mice served as positive controls, and low avidity MBP specific clone 4D10 and p277 specific clone 1304 served as negative control to assess the function and the specificity of the CD8+ T cells. It is noted that “quantitative” but not “qualitative” differences between the Qa-1/Hsp60sp versus Qa-1/Qdm is a function of avidity of T cell activation which determines their susceptibility to the down-regulation by the CD8+ T.
# 3F4 cells were passively loaded with peptides overnight at 26° C. Equal number of unlabeled 3F4 cells loaded with peptides and CFSE labeled 3F4 cells that are not loaded with peptide were mixed and a graded number of CD8+ T cells were added to the targets. […] 4 days later, the cell mixtures were stained with anti-mouse CD8-PE mAb to distinguish CD8+ T cells from target cells and the CD8+ T cells were gated out during the analysis when the ratio between two types of targets were calculated. […]
# [6] = tested on: HLA-E restricted CD8+ T cells; assay: CD8+ T cell inhibition CFSE assay on HLA-E transfectants loaded with peptide; assay type: cell-based, human
# Excerpt: Data obtained in human studies support the concept established in the murine studies.
# To test if HLA-E restricted CD8+ T cells also play a similar role in the control of human T1D, the function of CD8+ T cells in freshly isolated PBMC from T1D patients was first tested. For this purpose two assays were employed. The first is a standard T cell proliferation assay measuring self non-self discrimination, comparing the overall immune responses of human PBMC to self versus foreign antigens in the presence or absence of CD8+ T cells. Thus, intact PBMC populations or purified CD4+ T cells were cultured with varying doses of the self-antigen GAD or foreign antigen TT. Comparing PBMC with purified CD4+ T cells could not alone definitively pinpoint the function of the CD8+ T cells contained in the PBMC. […] This is the case in testing the function of CD8+ T cells in T1D patients combined with the CD8+ T cell inhibition CFSE assay, which can be applied as a relative simple and feasible clinical test. […] We then proceeded to further identify the specificity of the CD8+ T cells. Thus, purified CD8+ T cells from T1D patients were tested on HLA-E transfectant H3B2 cells loaded with Hsp60sp. H3B2 loaded with B7sp or non-HLA-E binding peptide served as controls.
# CD8+ T cells were in vitro primed with DCs loaded with either Hsp60sp [CD8(H)], or B7sp [CD8(B)] and tested for their specificity and the function of self-nonself discrimination using the two assays described above. […] To verify the restored function of the CD8+ T cells, these CD8+ T cell lines were also tested in a CFSE assay on HLA-E transfectant H3B2 cells loaded with Hsp60sp. A CD8(B) line from each patient served as control. […] This phenomenon has been observed in about 60% of the 10 total T1D patients tested to date.
# CD94/NKG2A [7] = molecular target: CD94/NKG2A (Homo sapiens, UniProt P26715+Q13241); conditions: cited from earlier work
# CD94/NKG2A (Homo sapiens, UniProt P26715+Q13241), sequence (Q13241 whole entry): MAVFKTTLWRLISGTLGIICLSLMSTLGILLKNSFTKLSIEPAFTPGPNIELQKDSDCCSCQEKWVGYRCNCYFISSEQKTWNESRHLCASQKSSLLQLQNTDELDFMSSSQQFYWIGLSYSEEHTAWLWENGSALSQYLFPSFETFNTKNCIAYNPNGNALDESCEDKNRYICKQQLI
# CD94/NKG2A (Homo sapiens, UniProt P26715+Q13241), sequence (P26715 whole entry): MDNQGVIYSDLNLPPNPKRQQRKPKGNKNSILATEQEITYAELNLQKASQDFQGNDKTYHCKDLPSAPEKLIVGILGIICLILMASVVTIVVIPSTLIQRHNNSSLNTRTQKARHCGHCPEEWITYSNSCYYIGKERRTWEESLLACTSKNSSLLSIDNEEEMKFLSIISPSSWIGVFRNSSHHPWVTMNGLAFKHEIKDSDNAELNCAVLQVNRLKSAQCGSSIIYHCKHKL
substance,measurement,setting,value
HEL: conventional foreign antigen Hen Egg Lysozyme,Protection from subsequently induced EAE,EAE in B10PL mice,CD8+ T cell dependent protection from either EAE or T1D
same,Protection from spontaneously developed T1D,T1D in NOD mice,CD8+ T cell dependent protection from either EAE or T1D
VLGGGVALLRVIPALDSLTPANED [p277],Protection from subsequently induced EAE,EAE in B10PL mice,equally effectively protected from EAE
same,Protection from spontaneously developed T1D,T1D in NOD mice,completely protected NOD mice from spontaneously developed T1D up to 35 week's of age
AcASGLAPSGA (Ac-ASGLAPSGA; listed as Mus musculus) [1-9Nac MBP],Protection from subsequently induced EAE,EAE in B10PL mice,equally effectively protected from EAE
same,Protection from spontaneously developed T1D,T1D in NOD mice,equally protected NOD mice from spontaneously developed T1D
AMAPRTLLL [Qdm],Binding to Qa-1 (shift in intensity of Qa-1a surface staining),Qa-1 [1],could bind to Qa-1
same,Inhibition of NK killing of peptide-loaded 3F4 cells,CD94/NKG2A [2],resistant to the NK killing
same,Binding to Qa-1,Qa-1/HLA-E,binds with high affinity
QMRPVSRAL (listed as Mus musculus) [Hsp60sp],Binding to Qa-1 (shift in intensity of Qa-1a surface staining),Qa-1 [1],could bind to Qa-1
same,Inhibition of NK killing of peptide-loaded 3F4 cells,CD94/NKG2A [2],does not inhibit NK killing
same,Competition with Qdm for binding to Qa-1 (abrogation of Qdm protection from NK killing),Qa-1 [3],abrogated the protection of NK killing of 3F4 by Qdm in a dose dependent manner
same,Susceptibility of peptide-loaded 3F4 cells to down-regulation by CD8+ T cells,[4],susceptible to the down-regulation by the CD8+ T cells
same,Down-regulation of peptide-sensitized 3F4 cells by CD8+ T cells,[5]; CD8+ T cells from 1-9Nac MBP or p277 vaccination protected B10PL mice,efficiently down-regulated
same,Down-regulation of peptide-sensitized 3F4 cells by CD8+ T cells,[5]; CD8+ T cells from p277 or 1-9Nac MBP vaccination protected NOD mice,efficiently down-regulated
same,Inhibition of H3B2 cells loaded with peptide by CD8(H),"[6]; CD8(H) line from a T1D patient, after in vitro priming with DCs loaded with Hsp60sp",specifically inhibited
same,Inhibition of H3B2 cells loaded with peptide by CD8+ T cells,[6]; CD8+ T cells from freshly isolated PBMC of T1D patients (11 total patients tested),failed to specifically inhibit
same,Inhibition of H3B2 cells loaded with peptide by CD8+ T cells,[6]; CD8+ T cells from normal controls,specifically inhibited
same,Inhibition of HLA-E transfected clones loaded with peptide by CD8(H),[6]; CD8+ T cells primed in vitro with Hsp60sp loaded dendritic cells,specifically inhibit
same,Competition with B7sp for occupancy of HLA-E,Qa-1/HLA-E; human studies,capable of competing with B7sp peptide
same,Interaction of HLA-E/peptide complex with CD94/NKG2A,CD94/NKG2A [7],does not interact with CD94/NKG2A
